Measured values published in PMC10382259, “Efficacy and Safety of Elamipretide in Individuals With Primary Mitochondrial Myopathy” (Neurology, 2023).
“Also recorded” adds a separate entry of the source.

How the values were obtained:
[1] = system: participants with primary mitochondrial myopathy (PMM); assay: 6-minute walk test (6MWT), MMPOWER-3 phase 3 trial; type: in vivo, human
Method: (§1) MMPOWER-3 was a 24-week , randomized, double-blind, parallel-group, placebo-controlled clinical trial for adults with PMM conducted at 27 clinical research centers in 7 countries (Canada, Denmark, England, Germany, Hungary, Italy, and the United States).
(§2) After screening (7–28 days), eligible participants were randomized in a 1:1 ratio to receive either 24-weeks of once-daily SC dosing of 40 mg of elamipretide or placebo. Study drug or placebo was self-administered subcutaneously by trained participants or their caregivers, at rotating sites around 4 quadrants of the abdomen or the thighs. Treatment began at the baseline visit with assessments at weeks 4, 12, and 24.
(§3) Coprimary endpoints evaluated the effect of elamipretide for 24 weeks including the distance walked (in meters) on the 6MWT and the total fatigue score on the Primary Mitochondrial Myopathy Symptom Assessment (PMMSA), previously described in detail.[31] The full PMMSA assesses the severity of 10 of the most common symptoms of PMM using the following 4-point scale (not at all[1] to severe; described later). PMMSA total fatigue score (TFS) focuses on myopathic symptoms most commonly associated with PMM (severity of tiredness and muscle weakness at rest and during activities, as described by participants).
(§4) Efficacy was assessed in the intention-to-treat (ITT) population, defined as all participants who received at least 1 dose of investigational medication, and the per-protocol (PP) population, which included all ITT participants without defined protocol violations/deviations identified per blinded data review before database lock. These protocol violations/deviations included not meeting inclusion/exclusion criteria or having a selected major protocol deviation deemed to potentially affect efficacy findings; not completing the study; not receiving investigational treatment within 2 days before the week 24 visit; having <80% compliance to investigational product; and not completing the study. Safety was assessed in the safety population, defined as all participants who received at least 1 dose of investigational medication.
(§5) Primary and secondary efficacy outcomes were assessed as the change from baseline to each on-treatment time point with the primary time point being end of treatment (week 24). Analyses of continuous endpoints were conducted using a mixed-model repeated measures approach, with fixed effects for treatment, visit, the treatment-by-visit interaction, and participant as a random effect. The baseline value and a baseline-by-visit interaction for the endpoint were included as covariates. A family-wise alpha level of 0.05 was maintained for the primary endpoints, using Hochberg procedure at the primary time point of 24 weeks. […] If not, the endpoint with the smaller p value of the 2 was considered statistically significant if the p value was ≤0.025 (2-sided ).
(§6) Given the extensive genetic heterogeneity of the study population, an exploratory analysis of genetic subgroups by genomic alteration (mtDNA and nDNA) was performed using the same methods as described for the primary efficacy endpoints earlier (ITT population using similar mixed-model repeated measure [MMRM] models).
Because of a potential data entry error, which was later identified in post hoc data analysis, 3 participants were misclassified in the clinical study report as having a pathogenic mtDNA variant. […] Accordingly, these participants were moved from the mtDNA group into the nDNA cohort for the included genetic alteration analyses. 6MWT for 1 participant at week 24 was deemed unusable because the participant inadvertently received walking assistance and was therefore not included in the 6MWT analyses. Study protocol and statistical analysis plan were published on ClinicalTrials.gov updated on January 24th 2022 (NCT03323749).[32]

[2] = system: participants with primary mitochondrial myopathy (PMM); assay: Primary Mitochondrial Myopathy Symptom Assessment (PMMSA) total fatigue score, MMPOWER-3; type: in vivo, human
Method: as §1, §2, §3
The PMMSA was performed during screening, baseline, and daily throughout the 24-week study period. Other efficacy endpoints were performed at screening, baseline, and at weeks 4, 12, and 24 of randomized treatment.
as §4, §5, §6

[3] = system: participants with primary mitochondrial myopathy (PMM); assay: Safety and tolerability (adverse events), MMPOWER-3; type: in vivo, human
Method: Safety and tolerability of elamipretide at a dose of 40 mg/d SC were assessed through recording of adverse events (AEs), ascertained through self-report, vital signs, physical examination, ECGs, and clinical laboratory evaluations. Adverse events were assessed for severity and relationship to study medication throughout the 24-week study. Safety measures were assessed during screening, baseline and weeks 4, 12, and 24.
as §4

[4] = Population pharmacokinetic and exposure-response analysis (NONMEM), MMPOWER-3; type: in vivo, human
Method: The PK population included 106 participants randomized and treated with elamipretide, with at least 1 PK sample taken during their participation. PK modeling for elamipretide and its metabolites, M1 and M2, were performed using NONMEM computer software. Covariates, such as age, genotype, weight, height, lean body mass, body mass index, liver function tests, serum creatinine, and renal function (as described by estimated glomerular filtration rate [eGFR]) were analyzed. The exposure-response analysis examined response based on the 6MWT as a function of steady-state exposure to elamipretide and its metabolites.

[5] = system: participants with primary mitochondrial myopathy (PMM); assay: MMPOWER-3 overall outcome on primary and secondary efficacy endpoints; type: in vivo, human; conditions: 40 mg/d SC, 24 weeks, vs placebo
Source text: as §3, with “participants). […]” for “participants).”
Other secondary endpoints included the patient global impression (PGI) and clinician global impression (CGI) of PMM symptoms. PGI and CGI assess patient and clinician overall assessment of the severity of patients' symptoms related to PMM on a 5-point scaled question scored 0 to 4 (0 = none, 1 = mild, 2 = moderate, 3 = severe, and 4 = very Severe) and changes to their symptoms on a 7-point scale scored −3 to 3 (−3 = very much worse, −2 = moderately worse, −1 = a little worse, 0 = no change, 1 = a little better, 2 = moderately better, and 3 = very much better).
Primary and secondary efficacy outcomes were assessed as the change from baseline to each on-treatment time point with the primary time point being end of treatment (week 24). […]

[6] = cited from earlier work
Source text: Elamipretide is an investigational mitochondrial-targeting agent in development for treating patients with a variety of mitochondrial diseases.[10][-][13] Elamipretide is a water-soluble, aromatic, cationic, mitochondria-targeting tetrapeptide that readily penetrates and transiently localizes to the inner mitochondrial membrane where it associates with cardiolipin to improve membrane stability and restore supercomplex formation, thereby enhancing adenosine triphosphate synthesis in several organs including the heart, kidney, neurons, and skeletal muscle, and reduce reactive oxygen species (ROS ...

[7] = 40 mg/d SC, 24 weeks, listed as Elamipretide
[8] = AEs reported by ≥ 5% of participants in either group, n = 109, 40 mg/d SC, 24 weeks
[9] = safety population n = 109, 40 mg/d SC, 24 weeks

Substance: elamipretide
- Difference between elamipretide and placebo in LS mean change from baseline in 6MWT distance at week 24 ([1]; ITT population, 40 mg/d SC, 24 weeks, 95% CI −18.7 to 12.3, p = 0.69): −3.2 meters
- Least squares mean (SE) of change from baseline in distance walked on 6MWT at week 24 ([1]; ITT population, elamipretide 40 mg/d SC once daily, 24 weeks, MMRM, SEM): 14.1 (±5.7) meters
- Difference between elamipretide and placebo in change from baseline in 6MWT distance at week 24, per-protocol analysis ([1]; PP population, 40 mg/d SC, 24 weeks, 95% CI −16.9 to 12.5, p = 0.77): −2.2 meters
- LS mean (SE) of change from baseline in 6MWT distance at week 24, mtDNA alteration subgroup ([1]; participants with mtDNA alteration (ITT), elamipretide n = 74, 40 mg/d SC, 24 weeks, SEM): 14.0 (±6.1) meters
- Between-group difference in change from baseline in 6MWT distance at week 24, mtDNA alteration subgroup ([1]; participants with mtDNA alteration, favoring placebo, 95% CI −28.1 to 6.1, p = 0.21): −11.0 meters
- LS mean (SE) change from baseline in 6MWT distance at week 24, nDNA alteration subgroup ([1]; participants with nDNA alteration (post hoc analysis), elamipretide n = 29, 40 mg/d SC, 24 weeks, SEM): 25.5 (±8.0) meters
- Between-group difference in change from baseline in 6MWT distance at week 24, nDNA alteration subgroup ([1]; participants with nDNA alteration (post hoc), favoring elamipretide, 95% CI 3.1–47.3, p = 0.03): 25.2 meters
- Difference between elamipretide and placebo in LS mean change from baseline to week 24 on PMMSA total fatigue score ([2]; ITT population, 40 mg/d SC, 24 weeks, 95% CI −0.69 to 0.54, p = 0.81): −0.07
- LS mean (SE) of change from baseline to week 24 on the PMMSA total fatigue score ([2]; ITT population, 40 mg/d SC, 24 weeks, MMRM, SEM): −1.13 (±0.22)
- Difference between elamipretide and placebo in change from baseline to week 24 on PMMSA total fatigue score, per-protocol analysis ([2]; PP population, 40 mg/d SC, 24 weeks, 95% CI −0.54 to 0.72, p = 0.78): 0.09
- LS mean (SE) of change from baseline at week 24 on PMMSA TFS, mtDNA alteration subgroup ([2]; participants with mtDNA alteration, 40 mg/d SC, 24 weeks, SEM): −1.3 (±0.2424)
- Between-group difference in change from baseline at week 24 on PMMSA TFS, mtDNA alteration subgroup ([2]; participants with mtDNA alteration, 95% CI −0.9 to 0.5, p = 0.55): −0.21
- LS mean (SE) of change from baseline at week 24 on PMMSA TFS, nDNA alteration subgroup ([2]; participants with nDNA alteration (post hoc analysis), 40 mg/d SC, 24 weeks, SEM): −0.45 (±0.25)
- Between-group difference in change from baseline at week 24 on PMMSA TFS, nDNA alteration subgroup ([2]; participants with nDNA alteration (post hoc), p = 0.93): 0.03
- AE with an outcome of death or hospitalization ([3]; 40 mg/d SC, 24 weeks): No participants
- Severity (intensity) of most adverse events ([3]; 40 mg/d SC, 24 weeks): mild or moderate
- Tolerability of subcutaneous elamipretide ([3]; 40 mg/d SC, 24 weeks): generally well tolerated
- Severity (intensity) of most adverse events [3, 7]: mild to moderate
- Tolerability of subcutaneous elamipretide [3, 7]: well-tolerated
- Diarrhea [3, 8]: 3 (2.8) n (%)
- Dizziness [3, 8]: 6 (5.5) n (%)
- Eosinophil count increased [3, 8]: 7 (6.4) n (%)
- Fall [3, 8]: 6 (5.5) n (%)
- Headache [3, 8]: 8 (7.3) n (%)
- Injection site bruising [3, 8]: 9 (8.3) n (%)
- Injection site erythema [3, 8]: 94 (86.2) n (%)
- Injection site hematoma [3, 8]: 0 n (%)
- Injection site hemorrhage [3, 8]: 7 (6.4) n (%)
- Injection site induration [3, 8]: 31 (28.4) n (%)
- Injection site mass [3, 8]: 9 (8.3) n (%)
- Injection site nodule [3, 8]: 11 (10.1) n (%)
- Injection site pain [3, 8]: 43 (39.4) n (%)
- Injection site pruritus [3, 8]: 82 (75.2) n (%)
- Injection site swelling [3, 8]: 42 (38.5) n (%)
- Injection site urticaria [3, 8]: 14 (12.8) n (%)
- Nasopharyngitis [3, 8]: 8 (7.3) n (%)
- Nausea [3, 8]: 5 (4.6) n (%)
- Upper respiratory tract infection [3, 8]: 7 (6.4) n (%)
- AEs reported as treatment-related AEs ([3]; elamipretide group, 40 mg/d SC, 24 weeks): 97.2%
- Percentage of participants with serious adverse events (SAEs) ([3]; n = 5/109, not deemed to be treatment related): 4.6%
- Incidence of AEs leading to discontinuation ([3]; n = 8/109): 7.3%
- Percentage of participants reporting AEs during the treatment period ([3]; n = 107/109, 40 mg/d SC, 24 weeks): 98.2%
- Any AE [3, 9]: 107 (98.2) n (%)
- Any AE leading to treatment discontinuation [3, 9]: 8 (7.3) n (%)
- Any AE leading to treatment interruption [3, 9]: 13 (11.9) n (%)
- Any SAE [3, 9]: 5 (4.6) n (%)
- Any treatment-related AE [3, 9]: 106 (97.2) n (%)
- Any treatment-related SAE [3, 9]: 0 n (%)
- Death [3, 9]: 0 n (%)
- Covariate influence on systemic or absorption PK parameters (population PK model) ([4]; PK population 106 participants, NONMEM, systemic parameters scaled allometrically): No covariates influenced the systemic or absorption parameters
- Exposure-response: 6MWT change and fractional change at week 24 vs day 1 as a function of elamipretide steady state area under the curve ([4]; participants with an nDNA alteration, p = 0.0262 and p = 0.0345, respectively): increase; also recorded: statistically significant correlation
- Overall outcome on efficacy endpoints (6MWT, PMMSA TFS, secondary endpoints) versus placebo [5]: did not improve outcomes in the 6MWT and PMMSA TFS; also recorded: did not meet either primary or secondary endpoints; also recorded: did not demonstrate statistically significant changes on the primary endpoints
- Solubility in water (description) [6]: water-soluble
